From patent US7514582B2, “2′-substituted 1,1′-biphenyl-2-carboxamides, processes for their preparation, their use as medicaments, and pharmaceutical preparations comprising them” (Sanofi-Aventis Deutschland GmbH, priority 1999, dated 2009)
pIC50: −log10 of the molar value. Where two headings read alike, the source gives them in different places.

Biological target: T1, Kv1.5 channels from humans (Homo sapiens, UniProt P22460)
T1 construct: expressed in transfected cells; host or cells: Xenopus laevis oocytes injected with in vitro synthesized RNA
T1 sequence (P22460 whole entry): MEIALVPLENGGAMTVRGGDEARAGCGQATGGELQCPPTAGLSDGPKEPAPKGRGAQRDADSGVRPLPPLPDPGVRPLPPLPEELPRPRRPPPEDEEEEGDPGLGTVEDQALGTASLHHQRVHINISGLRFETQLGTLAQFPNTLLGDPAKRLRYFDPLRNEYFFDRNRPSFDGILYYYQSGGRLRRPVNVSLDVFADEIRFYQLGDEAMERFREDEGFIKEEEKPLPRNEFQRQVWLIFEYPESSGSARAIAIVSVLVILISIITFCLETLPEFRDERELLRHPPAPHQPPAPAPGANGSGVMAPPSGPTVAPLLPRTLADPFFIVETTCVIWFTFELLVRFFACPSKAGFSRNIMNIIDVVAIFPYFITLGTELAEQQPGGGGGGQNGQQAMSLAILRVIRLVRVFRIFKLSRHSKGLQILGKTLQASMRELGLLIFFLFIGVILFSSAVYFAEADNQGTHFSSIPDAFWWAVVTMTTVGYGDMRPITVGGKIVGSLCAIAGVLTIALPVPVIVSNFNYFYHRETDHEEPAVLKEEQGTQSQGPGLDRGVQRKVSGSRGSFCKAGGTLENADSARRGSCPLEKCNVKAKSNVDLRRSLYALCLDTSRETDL
Test: Kv1.5 currents in Xenopus oocytes, two-microelectrode voltage clamp
Assay type: cell-based
Procedure: Kv1.5 channels from humans were expressed in Xenopus oocytes. For this, oocytes from Xenopus laevis were first isolated and defolliculated. RNA encoding Kv1.5 synthesized in vitro was then injected into these oocytes. After Kv1.5 protein expression for 1-7days, Kv1.5 currents were measured on the oocytes using the two-microelectrode voltage clamp technique. The Kv1.5 channels were in this case as a rule activated using voltage jumps to 0 mV and 40 mV lasting 500 ms. The bath was rinsed with a solution of the following composition: NaCl 96 mM, KCl 2 mM, CaCl2 1.8 mM, MgCl2 1 mM, HEPES 5 mM (titrated with NaOH to pH 7.4). These experiments were carried out at room temperature. The following were employed for data acquisition and analysis: Genedamp amplifier (Axon Instruments, Foster City, USA) and MacLab D/A converter and software (AD Instruments, Castle Hill, Australia). The substances according to the invention were tested by adding them in different concentrations to the bath solution. The effects of the substances were calculated as the percentage inhibition of the Kv1.5 control current which was obtained when no substance was added to the solution. The data were then extrapolated using the Hill equation in order to determine the inhibitory concentration IC50 for the respective substances.

[1] = human Kv1.5 expressed in Xenopus laevis oocytes, voltage jumps to 0 mV and 40 mV, 500 ms, room temperature, inhibition of Kv1.5 control current, Hill equation

SMILES | pIC50 | pIC50 [1]
CN(Cc1ccccc1)C(=O)c1ccccc1-c1ccccc1CNC(=O)OCc1ccccc1 [6 a] | 5.36 | –
O=C(NCc1ccccc1-c1ccccc1C(=O)NC1CCCCC1)OCc1ccccc1 [6 b] | 5.74 | –
O=C(NCc1ccccc1-c1ccccc1C(=O)Nc1ccccc1)OCc1ccccc1 [6 c] | 5.60 | –
CN(CCc1ccccn1)C(=O)c1ccccc1-c1ccccc1CNC(=O)OCc1ccccc1 [6 d] | 5.51 | –
CCCCN(CCCC)C(=O)c1ccccc1-c1ccccc1CNC(=O)OCc1ccccc1 [6 e] | 5.44 | –
O=C(NCc1ccccc1-c1ccccc1C(=O)NCC(F)(F)F)OCc1ccccc1 [6 h] | 5.52 | –
O=C(NCc1ccccc1-c1ccccc1C(=O)NCCc1cccc[n+]1[O-])OCc1ccccc1 [7 a] | ~5.22 | –
O=C(NCc1ccccc1-c1ccccc1C(=O)NCCc1cccnc1)OCc1ccccc1 [8 aa] | 6.10 | –
O=C(NCc1ccccc1-c1ccccc1C(=O)NCCc1ccncc1)OCc1ccccc1 [8 ab] | 5.92 | –
CC(C)C[C@@H](NC(=O)c1ccccc1-c1ccccc1CNC(=O)OCc1ccccc1)C(N)=O [8 ac] | 5.96 | –
COC(=O)[C@H](Cc1ccccc1)NC(=O)c1ccccc1-c1ccccc1CNC(=O)OCc1ccccc1 [8 b] | 6.05 | –
CC(C)(C)OC(=O)NCc1ccccc1-c1ccccc1C(=O)NCc1ccccn1 [8 d] | 5.19 | –
CC(C)(C)OC(=O)NCc1ccccc1-c1ccccc1C(=O)Nc1ccc(F)cc1 [8 k] | 5.51 | –
CC(C)(C)OC(=O)NCc1ccccc1-c1ccccc1C(=O)N[C@@H](CO)Cc1ccccc1 [8 m] | 5.28 | –
COC(=O)C(Cc1ccccn1)NC(=O)c1ccccc1-c1ccccc1CNC(=O)OC(C)(C)C (stereo not drawn) [8 n] | 5.43 | –
CC(C)(C)OC(=O)NCc1ccccc1-c1ccccc1C(=O)NCCc1ccccn1 [8 o] | 5.08 | –
CC(C)C(NC(=O)c1ccccc1-c1ccccc1CNC(=O)OCc1ccccc1)C(N)=O (stereo not drawn) [8 p] | 5.85 | –
CCN(Cc1ccncc1)C(=O)c1ccccc1-c1ccccc1CNC(=O)OCc1ccccc1 [8 q] | 5.14 | –
COC(=O)C(CC(C)C)NC(=O)c1ccccc1-c1ccccc1CNC(=O)OCc1ccccc1 (stereo not drawn) [8 r] | 6.00 | –
O=C(NCc1ccccc1-c1ccccc1C(=O)NCCCC(F)(F)F)OCc1ccccc1 [8 s] | 6.00 | –
CN(C)c1ccc(CNC(=O)c2ccccc2-c2ccccc2CNC(=O)OCc2ccccc2)cc1 [8 x] | 5.48 | –
CC(C)NC(=O)CNC(=O)c1ccccc1-c1ccccc1CNC(=O)OCc1ccccc1 [8 y] | 5.55 | –
COC(=O)C(Cc1ccccn1)NC(=O)c1ccccc1-c1ccccc1CNC(=O)OCc1ccccc1 (stereo not drawn) [8 z] | 5.80 | –
O=C(NCCc1ccccn1)c1ccccc1-c1ccccc1CNC(=S)Nc1ccccc1 [9 c] | 5.70 | –
O=C(NCCc1ccccn1)c1ccccc1-c1ccccc1CNC(=S)NCc1ccccc1 [9 f] | 5.66 | –
O=C(NCc1ccccn1)c1ccccc1-c1ccccc1CNC(=S)NCCc1ccccc1 [9 g] | – | 5.66

SMILES | pIC50 | pIC50 [1]
COc1ccc(NC(=O)NCc2ccccc2-c2ccccc2C(=O)NCCc2ccccn2)cc1 [11 a] | – | 5.64
O=C(NCc1ccccc1-c1ccccc1C(=O)NCCc1ccccn1)Nc1ccc(F)cc1F [11 b] | 5.14 | –
O=C(NCc1ccccc1-c1ccccc1C(=O)NCc1ccccn1)Nc1ccc(C(F)(F)F)cc1 [11 d] | – | 5.48
COCCNC(=O)c1ccccc1-c1ccccc1CNC(=O)Nc1ccc(Cl)cc1 [11 g] | 5.11 | –
COc1cc(CNC(=O)c2ccccc2-c2ccccc2CNC(=O)Nc2ccc(F)cc2F)cc(OC)c1OC [11 h] | – | 5.24
O=C(NCc1ccccc1-c1ccccc1C(=O)NCCc1ccccn1)Nc1ccc(Cl)cc1 [11 l] | – | 5.57
O=C(NCc1ccccc1-c1ccccc1C(=O)NCCc1ccccn1)Nc1ccc(C(F)(F)F)cc1 [11 m] | 5.48 | –
O=C(NCc1ccccc1-c1ccccc1C(=O)NCc1ccccn1)Nc1ccc(F)cc1F [11 n] | 5.23 | –
O=C(NCc1ccccc1-c1ccccc1C(=O)NCCc1ccccn1)Nc1cccc(C(F)(F)F)c1 [11 o] | 5.36 | –
O=C(NCc1ccccc1-c1ccccc1C(=O)NCCOc1ccccc1)Nc1ccc(F)cc1F [11 p] | 5.14 | –
Cc1cccc(S(=O)(=O)NCc2ccccc2-c2ccccc2C(=O)N[C@@H](Cc2ccccc2)C(N)=O)c1 [12 f] | 4.95 | –
CC(C)C[C@H](NC(=O)c1ccccc1-c1ccccc1CNC(=O)OCc1ccccc1)C(=O)Nc1ccccc1 [13 b] | ~5.52 | –
CC(C)C[C@H](NC(=O)c1ccccc1-c1ccccc1CNC(=O)OCc1ccccc1)C(=O)NCc1ccccc1 [13 c] | 5.85 | –
CC(C)C[C@H](NC(=O)c1ccccc1-c1ccccc1CNC(=O)OCc1ccccc1)C(=O)NCC(F)(F)F [13 d] | 6.30 | –
CC(C)CCNC(=O)[C@H](CC(C)C)NC(=O)c1ccccc1-c1ccccc1CNC(=O)OCc1ccccc1 [13 e] | 5.55 | –
COc1ccc(C(=O)NCc2ccccc2-c2ccccc2C(=O)N[C@@H](CC(C)C)C(=O)NCC(F)(F)F)cc1 [13 f] | 5.47 | –
CC(C)C[C@H](NC(=O)c1ccccc1-c1ccccc1CNC(=O)CCc1ccccc1)C(=O)NCC(F)(F)F [13 g] | 5.96 | –
COc1ccc(S(=O)(=O)NCc2ccccc2-c2ccccc2C(=O)N[C@@H](CC(C)C)C(=O)NCC(F)(F)F)cc1 [13 h] | 5.85 | –
CC(C)NC(=O)C(Cc1ccccn1)NC(=O)c1ccccc1-c1ccccc1CNC(=O)OCc1ccccc1 (stereo not drawn) [13 i] | 5.92 | –
Cc1ccccc1CCC(=O)NCc1ccccc1-c1ccccc1C(=O)NCc1ccc(F)cc1F [14 a] | 5.44 | –
O=C(CCc1ccc(F)cc1)NCc1ccccc1-c1ccccc1C(=O)NCc1ccc(F)cc1F [14 b] | 5.57 | –
O=C(CCc1ccc(O)cc1)NCc1ccccc1-c1ccccc1C(=O)NCc1ccc(F)cc1F [14 d] | 5.70 | –
COc1ccc(CCC(=O)NCc2ccccc2-c2ccccc2C(=O)NCc2ccc(F)cc2F)cc1 [14 e] | 6.10 | –
O=C(CCc1ccc(F)c(F)c1)NCc1ccccc1-c1ccccc1C(=O)NCc1ccc(F)cc1F [14 f] | 5.60 | –
COc1ccc(-c2ccccc2CNC(=O)OC(C)(C)C)c(C(=O)NCCC(C)C)c1 [15 b] | 5.51 | –
CC(C)CCNC(=O)c1cc(O)ccc1-c1ccccc1CNC(=O)OCc1ccccc1 [16 b] | 5.28 | –

SMILES | pIC50 | pIC50 [1]
CC(C)CCNC(=O)c1ccccc1-c1ccccc1[C@@H](C)NC(=O)OCc1ccccc1 [17 c] | 5.68 | –
CC(C)CCNC(=O)c1ccccc1-c1ccccc1[C@H](C)NC(=O)OCc1ccccc1 [17 d] | 5.89 | –
CC(C)CCNC(=O)c1ccccc1-c1ccccc1[C@H](C)NC(=O)O[C@@H](C)c1ccccc1 [17 e] | 5.74 | –
CC(C)CCC(=O)NCc1ccccc1-c1ccccc1C(=O)NCC1CC1 [18 a] | 5.14 | –
COCCCNC(=O)c1ccccc1-c1ccccc1CNC(=O)OCc1ccccc1 [18 aa] | 6.40 | –
COc1ccc(CC(=O)NCc2ccccc2-c2ccccc2C(=O)NC(C)CC(C)C)cc1 (stereo not drawn) [18 ab] | 5.96 | –
CC[C@@H](C)OC(=O)NCc1ccccc1-c1ccccc1C(=O)NCc1cccc(C)n1 [18 ac] | 5.00 | –
COc1ccc(CC(=O)NCc2ccccc2-c2ccccc2C(=O)NCc2nc3ccccc3[nH]2)cc1 [18 af] | 5.24 | –
O=C(NCc1ccccc1-c1ccccc1C(=O)NCc1nc2ccccc2[nH]1)OCc1ccccc1 [18 ah] | 5.68 | –
CN(C)c1ccc(CNC(=O)c2ccccc2-c2ccccc2CNC(=O)OCc2ccccc2)cc1 [18 ai] | 5.18 | –
C[C@H](CC(=O)NCc1ccccc1-c1ccccc1C(=O)NCC1CC1)c1ccccc1 [18 b] | 6.40 | –
CC(C)CCNC(=O)c1ccccc1-c1ccccc1CNC(=O)COc1ccccc1 [18 c] | 5.38 | –
CC(C)CCNC(=O)c1ccccc1-c1ccccc1CNC(=O)C[C@@H](C)c1ccccc1 [18 d] | 6.40 | –
CC(C)CCC(=O)NCc1ccccc1-c1ccccc1C(=O)NCc1ccc(F)cc1F [18 e] | 5.77 | –
C[C@H](CC(=O)NCc1ccccc1-c1ccccc1C(=O)NCc1ccncc1)c1ccccc1 [18 f] | 5.89 | –
CCC(C)CC(=O)NCc1ccccc1-c1ccccc1C(=O)NCc1ccccn1 (stereo not drawn) [18 g] | 5.41 | –
C[C@H](CC(=O)NCc1ccccc1-c1ccccc1C(=O)NCCc1ccncc1)c1ccccc1 [18 h] | 6.10 | –
C[C@H](CC(=O)NCc1ccccc1-c1ccccc1C(=O)NCCc1cccnc1)c1ccccc1 [18 i] | 6.40 | –
Cc1cccc(CNC(=O)c2ccccc2-c2ccccc2CNC(=O)C[C@@H](C)c2ccc([N+](=O)[O-])cc2)n1 [18 j] | 6.15 | –
O=C(Cc1ccc(F)cc1)NCc1ccccc1-c1ccccc1C(=O)Nc1ccc(F)cc1 [18 k] | 5.52 | –
CCCC(C)OC(=O)NCc1ccccc1-c1ccccc1C(=O)NCC1CC1 (stereo not drawn) [18 m] | 5.68 | –
C[C@H](O)CNC(=O)c1ccccc1-c1ccccc1CNC(=O)O[C@@H](C)c1ccccc1 [18 n] | 6.40 | –
CC(C)CCNC(=O)c1ccccc1-c1ccccc1CNC(=O)OCC1CC1 [18 o] | 5.44 | –
O=C(NCc1ccccc1-c1ccccc1C(=O)NCc1cccnc1)OCCc1ccccc1 [18 q] | 5.49 | –
C[C@H](OC(=O)NCc1ccccc1-c1ccccc1C(=O)NCCc1cccnc1)c1ccccc1 [18 s] | 6.05 | –
O=C(Cc1ccc(F)cc1)NCc1ccccc1-c1ccccc1C(=O)NCc1ccc(F)cc1F [18 u] | 5.96 | –
